Measured values reported in ChEMBL document CHEMBL1148182, “Flavonone and chalcone derivatives from Cryptocarya kurzii” (J Nat Prod, 1993).
≈ marks a conversion by molar mass, not a printed value.

Tested on: KB
Assay: Cytotoxicity against human KB cells
Assay type: functional, cell-based

Row | Structure (SMILES) | IC50
1 | O=C1CCC[C@@H]2C[C@H](C[C@](O)(/C=C/c3ccccc3)O2)c2c(cc(O)c(C(=O)/C=C/c3ccccc3)c2O)O1 [KURZICHALCOLACTONE] | 15 µg/mL (≈ 28.5 µM)
2 | O=C1CCC[C@@H]2C[C@H](C[C@](O)(/C=C/c3ccccc3)O2)c2c(cc(O)c3c2O[C@H](c2ccccc2)CC3=O)O1 [KURZIFLAVOLACTONE B] | 4 µg/mL (≈ 7.6 µM)
